Measured values as given in ChEMBL document CHEMBL1126816, “Inhibition of human leukocyte elastase. 6. Inhibition by 6-substituted penicillin esters” (Bioorg Med Chem Lett, 1993).

molecular target: T1, Neutrophil elastase (Homo sapiens, UniProt P08246); experiment: Inhibitory concentration required against Human Leukocyte Elastase (HLE) for 50% reduction in rate of hydrolysis of (suc-Ala-Ala-Pro-Ala-p-NA) peptide
T1 sequence (P08246 whole entry): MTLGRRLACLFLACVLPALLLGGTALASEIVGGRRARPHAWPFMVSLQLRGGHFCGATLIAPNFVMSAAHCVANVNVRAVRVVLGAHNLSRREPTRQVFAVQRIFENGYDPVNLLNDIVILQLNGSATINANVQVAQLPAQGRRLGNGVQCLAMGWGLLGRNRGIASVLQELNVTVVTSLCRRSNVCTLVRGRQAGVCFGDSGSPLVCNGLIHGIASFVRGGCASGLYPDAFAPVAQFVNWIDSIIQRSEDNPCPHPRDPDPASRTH

**Q.** `CC(=O)O[C@H]1C(=O)N2[C@@H](C(=O)OCc3ccccc3)C(C)(C)[S+]([O-])[C@@H]12` (stereo not given in full) was tested. Which IC50 did it give?
**A.** The IC50 was 5 µM.

**Q.** Which IC50 does the source give for `C[C@H](OC(=O)NCc1ccccc1)[C@H]1C(=O)N2[C@@H](C(=O)OCc3ccccc3)C(C)(C)S(=O)(=O)[C@H]12` here?
**A.** Its IC50 is 7 µM.

**Q.** `CC1(C)[C@H](C(=O)OCc2ccccc2)N2C(=O)[C@H](COC(=O)NCc3ccccc3)[C@H]2S1(=O)=O` was tested. Which IC50 did it give?
**A.** Its IC50 is 4 µM.

**Q.** Which IC50 does the source give for `CC1(C)S[C@@H]2[C@H](NC(=O)C(F)(F)F)C(=O)N2[C@H]1C(=O)OCc1ccccc1` here?
**A.** Its IC50 is 12 µM.

**Q.** For `CC1(C)[C@H](C(=O)OCc2ccccc2)N2C(=O)[C@H](Cl)[C@H]2S1(=O)=O`, which IC50 is on record?
**A.** The IC50 was 14 µM.

**Q.** With `CC(=O)O[C@H]1C(=O)N2[C@@H](C(=O)OCc3ccccc3)C(C)(C)S(=O)(=O)[C@H]12` as the molecule, how does the IC50 read?
**A.** Its IC50 is 0.2 µM.

**Q.** `CC1(C)[C@H](C(=O)OCc2ccccc2)N2C(=O)[C@H](NC(=O)C(F)(F)F)[C@H]2S1(=O)=O` was tested. Which IC50 did it give?
**A.** Its IC50 is 0.15 µM.

**Q.** How did the IC50 turn out when `C[C@@H](OC(=O)NCc1ccccc1)[C@H]1C(=O)N2[C@@H](C(=O)OCc3ccccc3)C(C)(C)S(=O)(=O)[C@H]12` was run?
**A.** The IC50 was 0.7 µM.

**Q.** How did the IC50 turn out when `CN(C(=O)C(F)(F)F)[C@@H]1C(=O)N2[C@@H](C(=O)OCc3ccccc3)C(C)(C)S(=O)(=O)[C@H]12` was run?
**A.** The IC50 was 0.7 µM.

**Q.** With `C[C@H](OC(=O)NCc1ccccc1)[C@@H]1C(=O)N2[C@@H](C(=O)OCc3ccccc3)C(C)(C)S(=O)(=O)[C@H]12` as the molecule, how does the IC50 read?
**A.** The IC50 was 0.3 µM.

**Q.** `CC1(C)[C@H](C(=O)OCc2ccccc2)N2C(=O)[C@H](OC(=O)Cc3ccccc3)[C@H]2S1(=O)=O` was tested. Which IC50 did it give?
**A.** Its IC50 is 4 µM.

**Q.** Which IC50 does the source give for `CO[C@H]1C(=O)N2[C@@H](C(=O)OC(C)(C)C)C(C)(C)S(=O)(=O)[C@H]12` here?
**A.** Its IC50 is greater than 20 µM.

**Q.** With `CO[C@H]1C(=O)N2[C@@H](C(=O)OCC(F)(F)F)C(C)(C)S(=O)(=O)[C@H]12` as the molecule, how does the IC50 read?
**A.** Its IC50 is 4 µM.

**Q.** `CC1(C)[C@H](C(=O)OCc2ccccc2)N2C(=O)[C@H](OC(=O)COc3ccccc3)[C@H]2S1(=O)=O` was tested. Which IC50 did it give?
**A.** Its IC50 is 5 µM.

**Q.** Which IC50 does the source give for `COC(=O)[C@@H]1N2C(=O)[C@H](OC)[C@H]2S(=O)(=O)C1(C)C` here?
**A.** Its IC50 is 20 µM.

**Q.** With `CC1(C)[C@H](C(=O)OCC(F)(F)F)N2C(=O)[C@H](NC(=O)C(F)(F)F)[C@H]2S1(=O)=O` as the molecule, how does the IC50 read?
**A.** The IC50 was 0.1 µM.

**Q.** For `CCO[C@H]1C(=O)N2[C@@H](C(=O)OCc3ccccc3)C(C)(C)S(=O)(=O)[C@H]12`, which IC50 is on record?
**A.** The IC50 was 2 µM.

**Q.** With `CC1(C)[C@H](C(=O)OCc2ccccc2)N2C(=O)[C@@H](COC(=O)NCc3ccccc3)[C@H]2S1(=O)=O` as the molecule, how does the IC50 read?
**A.** The IC50 was 0.7 µM.

**Q.** `CN(C(=O)C(F)(F)F)[C@H]1C(=O)N2[C@@H](C(=O)OCc3ccccc3)C(C)(C)S(=O)(=O)[C@H]12` was tested. Which IC50 did it give?
**A.** The IC50 was 0.2 µM.

**Q.** How did the IC50 turn out when `CC1(C)[C@H](C(=O)OCc2ccccc2)N2C(=O)[C@H](OCc3ccccc3)[C@H]2S1(=O)=O` was run?
**A.** Its IC50 is 4 µM.

**Q.** Which IC50 does the source give for `CC1(C)[C@H](C(=O)OCC(F)(F)F)N2C(=O)[C@@H](NC(=O)C(F)(F)F)[C@H]2S1(=O)=O` here?
**A.** Its IC50 is 3 µM.

**Q.** Which IC50 does the source give for `CC[C@@]1(NC(=O)C(F)(F)F)C(=O)N2[C@@H](C(=O)OCc3ccccc3)C(C)(C)S(=O)(=O)[C@@H]21` here?
**A.** Its IC50 is 3 µM.

**Q.** How did the IC50 turn out when `CO[C@@]1(NC(=O)C(F)(F)F)C(=O)N2[C@@H](C(=O)OCc3ccccc3)C(C)(C)S(=O)(=O)[C@@H]21` was run?
**A.** The IC50 was 9 µM.

**Q.** With `C[C@@H](OC(=O)NCc1ccccc1)[C@@H]1C(=O)N2[C@@H](C(=O)OCc3ccccc3)C(C)(C)S(=O)(=O)[C@H]12` as the molecule, how does the IC50 read?
**A.** Its IC50 is 10 µM.

**Q.** Which IC50 does the source give for `CC(=O)O[C@H]1C(=O)N2[C@@H]1SC(C)(C)[C@@H]2C(=O)OCc1ccccc1` here?
**A.** Its IC50 is 10 µM.

**Q.** Which IC50 does the source give for `CC1(C)[C@H](C(=O)OCc2ccccc2)N2C(=O)[C@@](C)(NC(=O)C(F)(F)F)[C@H]2S1(=O)=O` here?
**A.** The IC50 was greater than 20 µM.

**Q.** `Cc1ccc(S(=O)(=O)O[C@H]2C(=O)N3[C@@H](C(=O)OCc4ccccc4)C(C)(C)S(=O)(=O)[C@H]23)cc1` was tested. Which IC50 did it give?
**A.** Its IC50 is 0.05 µM.

**Q.** For `CC1(C)S[C@@H]2[C@@H](NC(=O)C(F)(F)F)C(=O)N2[C@H]1C(=O)OCc1ccccc1`, which IC50 is on record?
**A.** Its IC50 is 4 µM.

**Q.** With `CO[C@]1(NC(=O)C(F)(F)F)C(=O)N2[C@@H](C(=O)OCc3ccccc3)C(C)(C)S(=O)(=O)[C@@H]21` as the molecule, how does the IC50 read?
**A.** Its IC50 is 0.8 µM.

molecular target: T1, Neutrophil elastase; experiment: Inhibitory concentration required against Human Leukocyte Elastase (HLE) for 50% reduction in rate of hydrolysis of (suc-Ala-Ala-Pro-Ala-p-NA) peptide;compound was inactive

**Q.** `CC1(C)[C@H](C(=O)OCc2ccccc2)N2C(=O)[C@@H](NC(=O)C(F)(F)F)[C@H]2S1(=O)=O` was tested. Which IC50 did it give?
**A.** Its IC50 is 2 µM.
